Test results taken from PubChem BioAssay (NCI).
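1) Cells in 96-well plates. 2) Compound, 48 h, 5 concentrations. 3) Linear interpolation between surrounding doses. 4) Unreached endpoint = highest concentration. The concentration for 50% growth inhibition is given as GI50. TGI: total growth inhibition.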

Key:
Assay in all cases: NCI tumour cell line growth inhibition, 48 h
786-0 renal = tested on: 786-0 renal
A498 renal = tested on: A498 renal
A549 NSCLC = tested on: A549 NSCLC
ACHN renal = tested on: ACHN renal
BT-549 breast = tested on: BT-549 breast
CAKI-1 renal = tested on: CAKI-1 renal
CCRF-CEM leukemia = tested on: CCRF-CEM leukemia
COLO 205 colon = tested on: COLO 205 colon
DU-145 prostate = tested on: DU-145 prostate
EKVX NSCLC = tested on: EKVX NSCLC
HCC-2998 colon = tested on: HCC-2998 colon
HCT-116 colon = tested on: HCT-116 colon
HCT-15 colon = tested on: HCT-15 colon
HL-60(TB) leukemia = tested on: HL-60(TB) leukemia
HOP-62 NSCLC = tested on: HOP-62 NSCLC
HOP-92 NSCLC = tested on: HOP-92 NSCLC
HS 578T breast = tested on: HS 578T breast
HT29 colon = tested on: HT29 colon
IGROV1 ovarian = tested on: IGROV1 ovarian
K-562 leukemia = tested on: K-562 leukemia
KM12 colon = tested on: KM12 colon
LOX IMVI melanoma = tested on: LOX IMVI melanoma
M14 melanoma = tested on: M14 melanoma
MALME-3M melanoma = tested on: MALME-3M melanoma
MCF7 breast = tested on: MCF7 breast
MDA-MB-231 breast = tested on: MDA-MB-231 breast
MDA-MB-435 = tested on: MDA-MB-435
MOLT-4 leukemia = tested on: MOLT-4 leukemia
NCI-H226 lung = tested on: NCI-H226 lung
NCI-H23 lung = tested on: NCI-H23 lung
NCI-H460 lung = tested on: NCI-H460 lung
NCI-H522 lung = tested on: NCI-H522 lung
NCI/ADR-RES ovarian = tested on: NCI/ADR-RES ovarian
OVCAR-3 ovarian = tested on: OVCAR-3 ovarian
OVCAR-4 ovarian = tested on: OVCAR-4 ovarian
OVCAR-5 ovarian = tested on: OVCAR-5 ovarian
OVCAR-8 ovarian = tested on: OVCAR-8 ovarian
PC-3 prostate = tested on: PC-3 prostate
RPMI-8226 leukemia = tested on: RPMI-8226 leukemia
RXF 393 renal = tested on: RXF 393 renal
SF-268 CNS = tested on: SF-268 CNS
SF-295 CNS = tested on: SF-295 CNS
SF-539 CNS = tested on: SF-539 CNS
SK-MEL-2 melanoma = tested on: SK-MEL-2 melanoma
SK-MEL-28 melanoma = tested on: SK-MEL-28 melanoma
SK-MEL-5 melanoma = tested on: SK-MEL-5 melanoma
SK-OV-3 ovarian = tested on: SK-OV-3 ovarian
SN12C renal = tested on: SN12C renal
SNB-19 CNS = tested on: SNB-19 CNS
SNB-75 CNS = tested on: SNB-75 CNS
SR leukemia = tested on: SR leukemia
SW-620 colon = tested on: SW-620 colon
T-47D breast = tested on: T-47D breast
TK-10 renal = tested on: TK-10 renal
U251 CNS = tested on: U251 CNS
UACC-257 melanoma = tested on: UACC-257 melanoma
UACC-62 melanoma = tested on: UACC-62 melanoma
UO-31 renal = tested on: UO-31 renal
MDA-N = tested on: MDA-N

O=S(=O)(Nc1ccc(F)cc1F)c1ccc(-c2cnc(C3CC3)o2)cc1
GI50 (786-0 renal): 0.906 µM | TGI (786-0 renal): 63 µM | GI50 (A498 renal): 0.223 µM | TGI (A498 renal): 2.08 µM | GI50 (A549 NSCLC): 0.868 µM | TGI (A549 NSCLC): > 100 µM | GI50 (ACHN renal): 1.62 µM | TGI (ACHN renal): 31.2 µM | GI50 (BT-549 breast): 0.597 µM | TGI (BT-549 breast): 24 µM | GI50 (CAKI-1 renal): 0.562 µM | TGI (CAKI-1 renal): > 65.3 µM | GI50 (CCRF-CEM leukemia): 0.856 µM | TGI (CCRF-CEM leukemia): > 100 µM | GI50 (COLO 205 colon): 0.767 µM | TGI (COLO 205 colon): 17.1 µM | GI50 (DU-145 prostate): 2.09 µM | TGI (DU-145 prostate): > 100 µM | GI50 (EKVX NSCLC): 1.44 µM | TGI (EKVX NSCLC): > 73 µM | GI50 (HCC-2998 colon): 2.39 µM | TGI (HCC-2998 colon): 27.3 µM | GI50 (HCT-116 colon): 0.421 µM | TGI (HCT-116 colon): > 64 µM | GI50 (HCT-15 colon): 0.37 µM | TGI (HCT-15 colon): 46.7 µM | GI50 (HL-60(TB) leukemia): 0.397 µM | TGI (HL-60(TB) leukemia): 6.39 µM | GI50 (HOP-62 NSCLC): 0.724 µM | TGI (HOP-62 NSCLC): 47.6 µM | GI50 (HOP-92 NSCLC): 0.25 µM | TGI (HOP-92 NSCLC): 10.6 µM | GI50 (HS 578T breast): 0.545 µM | TGI (HS 578T breast): 22.7 µM | GI50 (HT29 colon): 0.381 µM | TGI (HT29 colon): 15.2 µM | GI50 (IGROV1 ovarian): 0.535 µM | TGI (IGROV1 ovarian): 67.2 µM | GI50 (K-562 leukemia): 0.211 µM | TGI (K-562 leukemia): > 100 µM | GI50 (KM12 colon): 0.485 µM | TGI (KM12 colon): 28.5 µM | GI50 (LOX IMVI melanoma): 0.588 µM | TGI (LOX IMVI melanoma): 22 µM | GI50 (M14 melanoma): 0.376 µM | TGI (M14 melanoma): > 59.9 µM | GI50 (MALME-3M melanoma): 0.615 µM | TGI (MALME-3M melanoma): 34.2 µM | GI50 (MCF7 breast): 0.398 µM | TGI (MCF7 breast): > 55.9 µM | GI50 (MDA-MB-231 breast): 1.37 µM | TGI (MDA-MB-231 breast): 21.7 µM | GI50 (MDA-MB-435): 0.14 µM | TGI (MDA-MB-435): 2.72 µM | GI50 (MOLT-4 leukemia): 0.652 µM | TGI (MOLT-4 leukemia): > 70.1 µM | GI50 (NCI-H226 lung): 1.7 µM | TGI (NCI-H226 lung): 43.3 µM | GI50 (NCI-H23 lung): 1.75 µM | TGI (NCI-H23 lung): 68.9 µM | GI50 (NCI-H460 lung): 0.404 µM | TGI (NCI-H460 lung): 28.2 µM | GI50 (NCI-H522 lung): 0.347 µM | TGI (NCI-H522 lung): 16 µM | GI50 (NCI/ADR-RES ovarian): 0.394 µM | TGI (NCI/ADR-RES ovarian): 15 µM | GI50 (OVCAR-3 ovarian): 0.493 µM | TGI (OVCAR-3 ovarian): 11.9 µM | GI50 (OVCAR-4 ovarian): 3.13 µM | TGI (OVCAR-4 ovarian): > 100 µM | GI50 (OVCAR-5 ovarian): 2.71 µM | TGI (OVCAR-5 ovarian): > 100 µM | GI50 (OVCAR-8 ovarian): 1.57 µM | TGI (OVCAR-8 ovarian): > 95.2 µM | GI50 (PC-3 prostate): 0.897 µM | TGI (PC-3 prostate): > 50.1 µM | GI50 (RPMI-8226 leukemia): 0.828 µM | TGI (RPMI-8226 leukemia): 29.8 µM | GI50 (RXF 393 renal): 0.595 µM | TGI (RXF 393 renal): 7.05 µM | GI50 (SF-268 CNS): 4.82 µM | TGI (SF-268 CNS): > 70.4 µM | GI50 (SF-295 CNS): 0.359 µM | TGI (SF-295 CNS): 5.53 µM | GI50 (SF-539 CNS): 0.674 µM | TGI (SF-539 CNS): 5.71 µM | GI50 (SK-MEL-2 melanoma): 0.737 µM | TGI (SK-MEL-2 melanoma): 34.6 µM | GI50 (SK-MEL-28 melanoma): 13.1 µM | TGI (SK-MEL-28 melanoma): > 71.9 µM | GI50 (SK-MEL-5 melanoma): 0.666 µM | TGI (SK-MEL-5 melanoma): 12.9 µM | GI50 (SK-OV-3 ovarian): 2.52 µM | TGI (SK-OV-3 ovarian): 61.6 µM | GI50 (SN12C renal): 0.878 µM | TGI (SN12C renal): 39.8 µM | GI50 (SNB-19 CNS): 0.638 µM | TGI (SNB-19 CNS): > 100 µM | GI50 (SNB-75 CNS): 0.219 µM | TGI (SNB-75 CNS): 1.25 µM | GI50 (SR leukemia): 0.406 µM | TGI (SR leukemia): > 100 µM | GI50 (SW-620 colon): 0.395 µM | TGI (SW-620 colon): > 100 µM | GI50 (T-47D breast): 0.443 µM | TGI (T-47D breast): 52.8 µM | GI50 (TK-10 renal): 3.2 µM | TGI (TK-10 renal): 48.3 µM | GI50 (U251 CNS): 0.552 µM | TGI (U251 CNS): 26.8 µM | GI50 (UACC-257 melanoma): 10.3 µM | TGI (UACC-257 melanoma): 51.8 µM | GI50 (UACC-62 melanoma): 0.358 µM | TGI (UACC-62 melanoma): 23.3 µM | GI50 (UO-31 renal): 1.07 µM | TGI (UO-31 renal): 34.2 µM

CC(O)CCCCC(O)CCC[C@H](O)[C@H]1CCC([C@H]2CCC([C@@H](O)CCCCCCCCCCCCC3=C[C@H](C)OC3=O)O2)O1 (some centres undefined)
TGI (786-0 renal): 25.9 µM | TGI (A549 NSCLC): 17.6 µM | TGI (ACHN renal): 21.1 µM | TGI (BT-549 breast): 21.3 µM | TGI (CAKI-1 renal): 21.1 µM | TGI (CCRF-CEM leukemia): 31.7 µM | TGI (COLO 205 colon): 23.7 µM | TGI (DU-145 prostate): 23.2 µM | TGI (EKVX NSCLC): 17.4 µM | TGI (HCC-2998 colon): 23.9 µM | TGI (HCT-116 colon): 15.5 µM | TGI (HCT-15 colon): 25.5 µM | TGI (HL-60(TB) leukemia): 26.9 µM | TGI (HOP-62 NSCLC): 20.7 µM | TGI (HOP-92 NSCLC): 21.6 µM | TGI (HS 578T breast): 29 µM | TGI (HT29 colon): 20.7 µM | TGI (IGROV1 ovarian): 21.1 µM | TGI (KM12 colon): 16.2 µM | TGI (M14 melanoma): 21.4 µM | TGI (MCF7 breast): 16.3 µM | TGI (MDA-MB-231 breast): 21.6 µM | TGI (MDA-MB-435): 18.5 µM | TGI (MDA-N): 22 µM | TGI (MOLT-4 leukemia): 20.1 µM | TGI (NCI-H226 lung): 19.5 µM | TGI (NCI-H23 lung): 19.5 µM | TGI (NCI-H460 lung): 18.1 µM | TGI (NCI-H522 lung): 16.7 µM | TGI (NCI/ADR-RES ovarian): 15.4 µM | TGI (OVCAR-3 ovarian): 19.1 µM | TGI (OVCAR-4 ovarian): 25.9 µM | TGI (OVCAR-5 ovarian): 22 µM | TGI (OVCAR-8 ovarian): 21.7 µM | TGI (PC-3 prostate): 21.2 µM | TGI (RXF 393 renal): 22.5 µM | TGI (SF-268 CNS): 22.4 µM | TGI (SF-295 CNS): 18.7 µM | TGI (SF-539 CNS): 20.6 µM | TGI (SK-MEL-2 melanoma): 18.3 µM | TGI (SK-MEL-28 melanoma): 23.9 µM | TGI (SK-MEL-5 melanoma): 17.2 µM | TGI (SK-OV-3 ovarian): 22.1 µM | TGI (SN12C renal): 22.9 µM | TGI (SNB-19 CNS): 20.2 µM | TGI (SNB-75 CNS): 18.9 µM | TGI (SR leukemia): 20.5 µM | TGI (SW-620 colon): 23.4 µM | TGI (TK-10 renal): 19.6 µM | TGI (U251 CNS): 20.6 µM | TGI (UACC-257 melanoma): 20.7 µM | TGI (UACC-62 melanoma): 21 µM | TGI (UO-31 renal): 19 µM
